Measurements reported in publication PMC6152717, “Novel Tacrine-Scutellarin Hybrids as Multipotent Anti-Alzheimer’s Agents: Design, Synthesis and Biological Evaluation” (Molecules : A Journal of Synthetic Chemistry and Natural …, 2017).
Marks after values point to notes of the source that are not given here.

How the values were obtained:
[1] = tested on: AChE isolated from rat cortex homogenate; settings: cited from earlier work
BChE from rat serum = settings: read-out: BChE IC50 ± SEM; cited from earlier work
[2] = printed in DPPH EC50 column; cited from earlier work
[3] = tested on: Electric eel AChE (EeAChE); settings: cited from earlier work
[4] = tested on: BChE from equine serum (eqBChE); settings: read-out: BChE IC50 ± SEM; cited from earlier work
[5] = tested on: AChE from human erythrocytes (hAChE); settings: read-out: AChE IC50 ± SEM; cited from earlier work
DPPH antioxidant assay = settings: mean of at least three experiments; 30 min, methanol
Source text: The free phenolic group of 1 is presumably able to easily undergo keto-enol tautomerism which has previously been postulated to be responsible for radical scavenging. Within the family of 6-Cl-THA-scutellarin hybrids, all the phenolic hydroxyls of scutellarin moiety are hindered by methyl containing methoxy groups and thus unable to exert such an effect under in vitro conditions. However, the antioxidant activity of K1383–K1389 in vivo may occur due to metabolism of the compound whereby demethylation of one or more methoxy groups can take place. This is known to be the case of 7-methoxytacrine and its major metabolite found in vivo, 7-hydroxytacrine.
DPPH, methanol, and Trolox (as reference standard) were purchased from Sigma-Aldrich. Polystyrene Nunc 96-well microplates with flat bottom shape (Thermo Fisher Scientific) were used for measuring purposes. All of the assays were carried out in methanol. DPPH solution was prepared at 0.2 mM concentration. […] The reaction time constituted 30 min. The antioxidant activity was determined by measuring the […] in absorbance at 517 nm at laboratory temperature using Synergy 2 multimode microplate reader. Each concentration was tested in triplicate. The software GraphPad Prism version 5 for Windows was used for statistical data evaluation.

HepG2 cells = test: Hepatotoxicity on HepG2 cells, MTT assay; format: cell-based; settings: for IC50: Homo sapiens, HepG2, MTT, 24 h incubation, mean ± SEM of three independent experiments; for cytotoxicity compared to reference 6-Cl-THA: HepG2, 24 h incubation
Protocol: Hepatotoxicity of tested compounds was evaluated using the HepG2 cell line originally from human liver hepatocellular carcinoma (ATCC, Manassas, VA, USA). These cells were plated at density 17 × 10^3 per well in a 96-well plate in Dulbecco’s Modified Eagle’s Medium (DMEM; Gibco, Langley, OK, USA) with 10% FBS (Gibco) and were left to attach overnight. […] Stock solutons of tested compounds were prepared in DMSO (Sigma Aldrich, Prague, Czech Republic) and then diluted in DMEM medium. […] Subsequently, the medium was aspirated and 100 μL MTT solution (0.5 mg/mL) in serum-free DMEM medium was added to each well. Cells were then incubated for 1 h. The medium was then discarded and purple crystals of MTT formazan were dissolved in 100 μL DMSO under shaking. The absorbance was measured with a microplate reader (BioTek) at a minimum wavelength of 570 nm. The IC50 values were calculated using four parametric nonlinear regression with statistic software GraphPad Prism. Data were obtained from three independent experiments performed in triplicates.

[6] = PAMPA-BBB permeation assay; format: in vitro ADME; settings: for Prediction of BBB penetration: PAMPA-BBB class; for Papp at 100 μM / BBB crossing prediction: PAMPA-BBB; for Papp at 100 μM: PBS pH 7.4, 100 μM donor, mean ± SD of three independent experiments, read-out: Pe; for BBB crossing prediction: passive diffusion model
Protocol: The parallel artificial membrane permeation assay (PAMPA) has been used based on reported protocol. The filter membrane of the donor plate was coated with PBL (Polar Brain Lipid, Avanti, Alabaster, AL, USA) in dodecane (4 μL of 20 mg/mL PBL in dodecane) and the acceptor well was filled with 300 μL of PBS pH 7.4 buffer (VD). Tested compounds were dissolved first in DMSO and then diluted with PBS pH 7.4 to reach the final concentration 100 μM in the donor well. […] 300 μL of the donor solution was added to the donor wells (VA) and the donor filter plate was carefully put on the acceptor plate so that coated membrane was “in touch” with both donor solution and acceptor buffer. Test compound diffused from the donor well through the lipid membrane (Area = 0.28 cm^2) to the acceptor well. The concentration of the drug in both donor and the acceptor wells was assessed after 3, 4, 5 and 6 h of incubation in quadruplicate using the Synergy HT UV plate reader at the maximum absorption wavelength of each compound. Concentration of the compounds was calculated from the standard curve and expressed as the permeability (Pe) according to Equation (2): (2) logPe=log {C×−ln(1−[drug]acceptor/[drug]equilibrium)} where C = (VD×VA/(VD+VA)×Area×time)

[7] = biological target: T1, human acetylcholinesterase (hAChE) (Homo sapiens, UniProt P22303); test: biochemical; settings: AChE from human erythrocytes; mean of three independent measurements ± SEM
T1 construct: Human erythrocyte hemolyzate, prepared from blood samples, was applied as a source of AChE (EC 3.1.1.7); from tissue; host or cells: human erythrocytes (hemolyzate from blood of healthy volunteers)
T1 sequence (P22303 32-617 isoform P22303-2 limits assumed): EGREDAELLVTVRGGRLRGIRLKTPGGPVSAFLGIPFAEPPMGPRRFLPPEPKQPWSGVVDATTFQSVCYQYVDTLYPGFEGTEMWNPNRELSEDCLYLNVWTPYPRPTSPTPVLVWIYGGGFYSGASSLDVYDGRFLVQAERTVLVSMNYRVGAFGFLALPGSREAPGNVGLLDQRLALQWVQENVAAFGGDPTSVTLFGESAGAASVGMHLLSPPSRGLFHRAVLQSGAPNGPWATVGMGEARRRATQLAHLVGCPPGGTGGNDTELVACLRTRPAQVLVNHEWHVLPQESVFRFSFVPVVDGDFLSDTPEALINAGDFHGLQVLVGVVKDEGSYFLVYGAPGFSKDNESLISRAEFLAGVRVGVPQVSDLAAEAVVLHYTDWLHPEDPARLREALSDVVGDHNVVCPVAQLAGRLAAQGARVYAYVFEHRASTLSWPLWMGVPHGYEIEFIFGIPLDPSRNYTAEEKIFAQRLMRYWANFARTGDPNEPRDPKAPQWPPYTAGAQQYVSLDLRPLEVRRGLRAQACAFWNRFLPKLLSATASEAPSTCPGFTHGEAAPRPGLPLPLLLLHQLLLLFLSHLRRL
Protocol: (§1) Human erythrocyte hemolyzate, prepared from blood samples, was applied as a source of AChE (EC 3.1.1.7). […] The erythrocytes were washed three times with phosphate buffer (PB; 0.1 M, pH 7.4) and then hemolyzed in PB (0.01 M, Ph 7.4) in ration 1:10 (w/w), frozen and kept under −80 °C before use. Human plasma BChE (EC 3.1.1.8), 5,5′-dithiobis(2-nitrobenzoic acid) (Ellman’s reagent, DTNB), phosphate buffer solution (PBS, pH 7.4), acetylthiocholine iodide (ATCh), and butyrylthiocholine (BTCh) were purchased from Sigma-Aldrich. Polystyrene Nunc 96-well microplates with flat bottom shape (ThermoFisher Scientific, Bremen, Germany) were used for the measuring purposes. All of the assays were carried out in 0.1 M KH2PO4/K2HPO4 buffer, pH 7.4. […] The assay medium (100 μL) consisted of 40 μL of 0.1 M PBS (pH = 7.4), 20 μL of 0.01 M DTNB, 10 μL of cholinesterase, 10 µL of tested compound and 20 μL of 0.01 M substrate (ATCh or BTCh iodide solution). Assayed solutions of target compounds (10 μL, 10^−^3–10^−^9 M) were preincubated with enzyme for 5 min. The reaction was initiated by addition of 20 μL of substrate. […] Each concentration was assayed in triplicate. Percentage of inhibition (I) was calculated from the measured data as follows Equation (1): (1) I=(1−ΔAi/ΔA0)×100 [%]
(§2) ΔAi indicates absorbance change provided by cholinesterase exposed to tested compound. ΔA0 indicates absorbance change caused by intact cholinesterase, where phosphate bufffer was applied in the same was as the anticholinesterase compound. […] The IC50 values are expressed as a mean ± SEM.

[8] = biological target: T2, human butyrylcholinesterase (hBChE) (Homo sapiens, UniProt P06276); test: biochemical; settings: BChE from human plasma; mean of three independent measurements ± SEM
T2 construct: Human plasma BChE (EC 3.1.1.8); purchased Sigma-Aldrich; host or cells: human plasma
T2 sequence (P06276 29-602): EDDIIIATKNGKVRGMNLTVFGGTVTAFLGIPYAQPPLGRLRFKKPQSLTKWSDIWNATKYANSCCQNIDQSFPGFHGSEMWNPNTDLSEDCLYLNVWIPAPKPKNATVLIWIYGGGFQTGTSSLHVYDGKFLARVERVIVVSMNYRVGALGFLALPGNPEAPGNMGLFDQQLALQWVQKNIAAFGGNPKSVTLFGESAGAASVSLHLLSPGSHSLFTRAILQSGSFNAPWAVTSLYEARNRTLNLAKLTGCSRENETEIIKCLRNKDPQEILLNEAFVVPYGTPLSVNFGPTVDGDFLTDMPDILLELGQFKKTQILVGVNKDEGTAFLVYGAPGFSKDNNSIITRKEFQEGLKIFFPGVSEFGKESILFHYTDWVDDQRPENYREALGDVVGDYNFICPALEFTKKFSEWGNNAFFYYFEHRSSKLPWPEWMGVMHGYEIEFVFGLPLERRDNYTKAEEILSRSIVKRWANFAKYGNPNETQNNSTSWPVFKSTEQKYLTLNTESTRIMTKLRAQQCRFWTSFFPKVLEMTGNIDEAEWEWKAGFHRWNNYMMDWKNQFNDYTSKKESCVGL
Source text: It is well established that the activity of AChE decreases during the course of AD, while that of BChE increases. Several reports indicate the ability of BChE to compensate the lack of AChE thus continuing in regulation of cholinergic transmission. Therefore, the agents with affinity to both cholinesterases could play a more profound role in the AD therapy.
as §1, §2

hAChE = biological target: T3, hAChE (Homo sapiens, UniProt P22303); test: Kinetic study of AChE inhibition (Lineweaver-Burk, nonlinear regression); format: biochemical
T3 construct: Human erythrocyte hemolyzate, prepared from blood samples, was applied as a source of AChE (EC 3.1.1.7); from tissue; host or cells: human erythrocytes (hemolyzate from blood of healthy volunteers)
T3 sequence (P22303 32-617 isoform P22303-2 limits assumed): as the sequence (P22303 32-617 isoform P22303-2 limits assumed) above
Protocol: To determine the interaction of K1383 with hAChE, a kinetic study was carried out. Enzyme rate curves were obtained at several substrate concentrations of the inhibitor.
Inhibitors bind reversibly to both free AChE and AChE-substrate complex with equal affinity (Ki = Ki′) thus affecting the binding of substrate in the active site of enzyme and interacting with its allosteric peripheral anionic site (PAS). Interaction in this site causes conformational changes of the enzyme, including its active site. Km remained unchanged, while Vmax was reduced at higher concentration of K1383.
The kinetic study of AChE inhibition was performed using Ellman’s method. […] The type of inhibition and corresponding inhibition constant (Ki and Ki′) were determined by the nonlinear regression analysis of the substrate velocity curves at different concentrations of tested compounds. Results for each type model of inhibition (competitive, uncompetitive, mixed and mixed-non-competitive) were compared with sum-of-squares F-test. Lineweaver-Burk (double-reciprocal) plot, used for visualization of the enzyme-inhibitor interactions, was calculated using weighted least-squares regression. All calculations were performed using the GraphPad Prism software.
Figure 2 Steady-state inhibition of AChE hydrolysis of substrate acetylthiocholine (ATCh) by compound K1383 at different concentrations. […]

Structure (SMILES)	EC50 (DPPH antioxidant assay) [nM]	IC50 (HepG2 cells) [nM]	Prediction of BBB penetration [6]	Papp at 100 μM [6] [×10⁻⁶ cm/s]	IC50 [7] [nM]	IC50 [8] [nM]	other results
CCN(CC)c1cccc(-c2cc(=O)c3c(O)c(OC)c(OC)cc3o2)c1 [Compound 1]	–	–	–	–	–	–	IC50 ([1]; AChE isolated from rat cortex homogenate, read-out: AChE IC50 ± SEM): 570 ± 20 nM; SI (BChE IC50/AChE IC50) ([1]; rat AChE vs rat BChE): 39.7; IC50 (BChE from rat serum): 22600 ± 220 nM; ORAC-FL antioxidant power [2]: 1.3 ± 0.02 ^a µM of Trolox/µM of tested compound
COc1cc2oc(-c3cccc(OCC(=O)NCCCCCCNc4c5c(nc6cc(Cl)ccc46)CCCC5)c3)cc(=O)c2c(OC)c1OC [Compound 2]	–	–	–	–	–	–	IC50 ([3]; Electric eel AChE activity, read-out: AChE IC50 ± SEM (converted)): 47.2 nM; SI (BChE IC50/AChE IC50) ([3]; electric eel AChE vs equine serum BChE): 20.5; IC50 [4]: 968.9 ± 8.26 nM; ORAC-FL antioxidant power [2]: 0.47 ± 0.03 ^a µM of Trolox/µM of tested compound; IC50 [5]: 32.5 ± 0.25 nM
Nc1c2c(nc3cc(Cl)ccc13)CCCC2 [Compound 6-Cl-THA, 6-Chlorotacrine, reference compound]	> 100000	7130 ± 110	CNS+ (high BBB permeation predicted, Pe × 10^−6 cm/s > 4.0)	5 ± 0.45	–	–	–
COc1cc2oc(-c3ccc(NCCNc4c5c(nc6cc(Cl)ccc46)CCCC5)cc3)cc(=O)c2c(OC)c1OC [Compound K1383]	> 500000	3400 ± 1050	CNS± (BBB permeation uncertain, Pe × 10^−6 cm/s from 4.0 to 2.0)	2.88 ± 0.1	1.63 ± 0.13	1210 ± 70	type of inhibition (hAChE; nonlinear regression analysis, p < 0.05): mixed, non-competitive; Ki (hAChE; substrate ATCh 0.156–1.250 mM, Ki = Ki′): 2.75 ± 0.32 nM
COc1cc2oc(-c3ccc(NCCCNc4c5c(nc6cc(Cl)ccc46)CCCC5)cc3)cc(=O)c2c(OC)c1OC [Compound K1384]	> 500000	5770 ± 1680	CNS+ (high BBB permeation predicted, Pe × 10^−6 cm/s > 4.0)	5.01 ± 2.2	1.9 ± 0.1	174 ± 7	BBB crossing prediction [6]: potential to cross the BBB
COc1cc2oc(-c3ccc(NCCCCNc4c5c(nc6cc(Cl)ccc46)CCCC5)cc3)cc(=O)c2c(OC)c1OC [Compound K1385]	> 500000	3290 ± 820	CNS± (BBB permeation uncertain, Pe × 10^−6 cm/s from 4.0 to 2.0)	2.6 ± 0.55	5.15 ± 0.18	8690 ± 40	–
COc1cc2oc(-c3ccc(NCCCCCNc4c5c(nc6cc(Cl)ccc46)CCCC5)cc3)cc(=O)c2c(OC)c1OC [Compound K1386]	> 500000	3890 ± 1080	CNS± (BBB permeation uncertain, Pe × 10^−6 cm/s from 4.0 to 2.0)	3.93 ± 1	26.7 ± 1	934 ± 45	–
COc1cc2oc(-c3ccc(NCCCCCCNc4c5c(nc6cc(Cl)ccc46)CCCC5)cc3)cc(=O)c2c(OC)c1OC [Compound K1387]	> 500000	7760 ± 1470	CNS± (BBB permeation uncertain, Pe × 10^−6 cm/s from 4.0 to 2.0)	3.31 ± 0.38	31 ± 1.5	6460 ± 300	–
COc1cc2oc(-c3ccc(NCCCCCCCNc4c5c(nc6cc(Cl)ccc46)CCCC5)cc3)cc(=O)c2c(OC)c1OC [Compound K1388]	> 500000	> 32000	CNS+ (high BBB permeation predicted, Pe × 10^−6 cm/s > 4.0)	4.92 ± 0.02	24.1 ± 0.9	2810 ± 110	cytotoxicity compared to reference 6-Cl-THA (HepG2 cells): slightly suppressed cytotoxicity; BBB crossing prediction [6]: potential to cross the BBB
COc1cc2oc(-c3ccc(NCCCCCCCCNc4c5c(nc6cc(Cl)ccc46)CCCC5)cc3)cc(=O)c2c(OC)c1OC [Compound K1389]	> 500000	> 16000	CNS+ (high BBB permeation predicted, Pe × 10^−6 cm/s > 4.0)	8.1 ± 3.1	22.3 ± 0.7	2210 ± 130	cytotoxicity compared to reference 6-Cl-THA (HepG2 cells): slightly suppressed cytotoxicity; BBB crossing prediction [6]: potential to cross the BBB
Cc1c(C)c2c(c(C)c1O)CCC(C)(C(=O)O)O2 (stereo not drawn) [trolox, Trolox, reference compound]	16200 ± 420	–	–	–	–	–	–
